Laboratory results reported in ChEMBL document CHEMBL3272223, “Folate analogues altered in the C9-N10 bridge region. 10-Oxafolic acid and 10-oxaaminopterin” (J Med Chem, 1976).
Each block holds one compound with its values, some of them ahead of it. The source made the active and inactive calls. The calls are words filed in the database; no cut-off is given here.

Columns and labels:
[1] = target: Dihydrofolate reductase (Lactobacillus casei) (UniProt P00381); assay: Activity at DCM-resistant Lactobacillus casei DHFR relative to 7,8-dihydrofolic acid; settings: Lacticaseibacillus casei
Sequence of Dihydrofolate reductase (Lactobacillus casei) (P00381 whole entry): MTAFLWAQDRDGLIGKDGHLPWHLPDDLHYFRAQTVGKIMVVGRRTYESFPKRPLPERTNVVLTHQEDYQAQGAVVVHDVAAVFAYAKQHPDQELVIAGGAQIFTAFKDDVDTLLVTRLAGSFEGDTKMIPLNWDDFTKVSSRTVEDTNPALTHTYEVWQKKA

[2] = target: Dihydrofolate reductase (Lactobacillus casei) (UniProt P00381); assay: Inhibition of DCM-resistant Lactobacillus casei DHFR at 0.13 mM; settings: Lacticaseibacillus casei
[3] = target: Dihydrofolate reductase (Lactobacillus casei) (UniProt P00381); assay: Activity at DCM-resistant Lactobacillus casei DHFR; settings: Lacticaseibacillus casei
[4] = target: Dihydrofolate reductase (Lactobacillus casei, UniProt P00381); assay: Inhibition of DCM-resistant Lactobacillus casei DHFR; set-up: species or system Lacticaseibacillus casei; settings: read-out: I50
Sequence of Dihydrofolate reductase (P00381 whole entry): as above

[5] = tested on: Enterococcus faecium; assay: Growth inhibition of Streptococcus faecium ATCC 8043 at 5 ng/ml by turbidimetric method; type: functional; settings: read-out: GI
[6] = tested on: Enterococcus faecium; assay: Growth inhibition of Streptococcus faecium ATCC 8043 at 50 ng/ml by turbidimetric method; type: functional; settings: read-out: GI

Activity [1]: 28%
SMILES: Nc1nc(=O)c2c([nH]1)NCC(CSc1ccc(C(=O)N[C@@H](CCC(=O)O)C(=O)O)cc1)=N2

inhibition [2]: inactive
Activity [3]: inactive
SMILES: Nc1nc(=O)c2c([nH]1)NCC(COc1ccc(C(=O)N[C@@H](CCC(=O)O)C(=O)O)cc1)=N2

IC50 [4]: 4.5 nM
SMILES: Nc1nc(N)c2nc(COc3ccc(C(=O)N[C@@H](CCC(=O)O)C(=O)O)cc3)cnc2n1
inhibition of growth at 0.005 µg/mL [5]: 50%

inhibition [2]: inactive
SMILES: Nc1nc(=O)c2nc(COc3ccc(C(=O)N[C@@H](CCC(=O)O)C(=O)O)cc3)cnc2[nH]1
inhibition of growth at 0.05 µg/mL [6]: 50%
